Columns and labels:
[1] = Thermodynamic (polymorphic) stability: conversion to other solid state forms, measured by XRPD; format: physicochemical; details: after exposure to conditions of up to 25° C./100% RH for at least 1 month, as measured by XRPD; stable = less than 20% conversion
Procedure: The crystalline Elafibranor as described above in (a)-(f) may be anhydrous. The crystalline Elafibranor may be substantially free of other solid state forms of Elafibranor. […] In some embodiments, the conversion is 1%-20%, 1%-10% or 1%-5%.
Melting peak of crystalline form I of Elafibranor is in the range of about 154° C. and about 164° C., for example about 158° C. and about 160° C., preferably at about 159° C. as measured by DSC. […] Thermodynamic stability in relation to crystalline Elafibranor form I refers to less than 20%, less than 10%, less than 5%, less than 2%, less than 1%, or less than 0.5% conversion of crystalline Elafibranor form I to any other solid state form of Elafibranor after exposure of form I to conditions of up to 25° C./100% RH for at least 1 month, as measured by XRPD. In some embodiments, the conversion is 1%-20%, 1%-10% or 1%-5%.
Thermodynamic stability in relation to crystalline Elafibranor form II refers to less than 20%, 10%, 5%, 2%, 1%, or 0.5% conversion of crystalline Elafibranor form II to any other solid state form of Elafibranor after exposure of form II to conditions of up to 25° C./100% RH for at least 1 month, as measured by XRPD. In some embodiments, the conversion is 1%-20%, 1%-10% or 1%-5%.
Sample after being powdered in a mortar and pestle is applied directly on a silicon plate holder. […]

[2] = Hygroscopicity (water absorption, European Pharmacopoeia 7.0, chapter 01/2008:51100); format: physicochemical; details: non-hygroscopic = less than 0.1% (w/w) of water absorption after 24 h exposure to 25° C./80% RH
Procedure: As used herein the term non-hygroscopic in relation to crystalline Elafibranor refers to less than 0.1% (w/w) of water absorption after 24 h exposure to 25° C./80% RH, determined according to European Pharmacopoeia 7.0, chapter 01/2008:51100. Water can be for example atmospheric water.

thermodynamic stability (conversion to any other solid state form of Elafibranor) [1]: thermodynamically stable | hygroscopicity [2]: non-hygroscopic
Structure (SMILES): CSc1ccc(C(=O)/C=C/c2cc(C)c(OC(C)(C)C(=O)O)c(C)c2)cc1 [form I, 2-(2,6-dimethyl-4-{3-[4-(methylsulfanyl)phenyl]-3-oxoprop-1-en-1-yl}phenoxy)-2-methylpropanoic acid]
